Results reported in patent US10524472B2, “Elicitor peptides having disrupted hypersensitive response box and use thereof” (Plant Health Care, Inc., priority 2014, dated 2020).
Marks after values point to notes of the source that are not given here.

These substances were tested on tobacco mosaic virus (TMV) (assay: Induction of resistance to tobacco mosaic virus in tobacco). Conditions: covered leaf.
Format: in vivo

Substance | efficacy on covered leaves, systemic immune response
GGLTLTGVDQKLMKILNALVQ (P25-9D) | reduced efficacy on covered leaves
QDPMQASMQLLEDLVKLLK (P14d-7S) | reduced efficacy on covered leaves
SEEEEEDAQLLAQLLKSLL (P18min-7D) | reduced efficacy on covered leaves

Same assay, conditions: foliar spray

Substance | TMV response / effectiveness against TMV infection (summary of Table 22)
QDPMQALMQLLEDLVKLDK (P14d-18D) | weaker TMV responses
SEEEEELAQLSAQLLKSLL (P18min-11S) | weaker TMV responses
SQGISEKQL_QLL_QLI_ALLQP (SQGISEKQLQLLQLIALLQP; P4-d10,14,18) | moderate reduction in effectiveness against TMV infection
SEEEEELKALLKSIARLL (P19min-13S) | poor immune activation
SQGISEKQLDQLLSQLIQAVLQP (P4-14S-20V) | weaker TMV responses
SEEEEELTLTGVLQKLLKIL (P25-14) | weaker control of TMV infection
SQGISEKQLDQLLSQL (P4-116) | reduced effectiveness against TMV infection
SEEEELDQLLTQLI (P1-31) | anti-TMV activity
SEEEEEDAQLLAQLLKSLL (P18min-7D) | weaker TMV responses
SQGISEKQLDQLLSQVIQALLQP (P4-14S-16V) | produced the best results

Same assay, conditions: foliar spray, listed as P19 min-135

Substance | TMV response / effectiveness against TMV infection (summary of Table 22)
SEEEEELKALLKSIARLL (P19min-13S) | weaker TMV responses

Same assay, conditions: spray 10 ug/ml, TMV 3 days post-treatment, scored 3 days after inoculation

Substance | Effectiveness Covered (%) (decline in TMV lesions vs UTC, systemic response) | Effectiveness Uncovered (%) (decline in TMV lesions vs UTC, local response)
SQGISEKQLDQLLASQLIQALLQP (P4-i14A) | 77% | 75%
SQGISEKQL_QLL_QLI_ALLQP (SQGISEKQLQLLQLIALLQP; P4-d10,14,18) | 37% | 55%
QAGPQSANKTGNVDDANNQDPMQALMQLLEDL (P14-dc1) | 46% | 65* %
QAGPQSANKTGNVDDANNQDPAQALAQLLEDLV (P14-22A,26A) | 93* % | 92* %
SQGISEKQLADQLLSQLIQALLQP (P4-i10A) | 81% | 92%
QAGPQSANKTGNVDDANNQDPLQALLQLLEDAA (P14-22L,32-33A) | 69* % | 91* %
QAGPQSANKTGNVDDANNQDPLQAAAQLLEDLV (P14-22L,25-26A) | 75* % | 87* %
QAGPQSANKTGNVDDANNQDPLQALLQLAEDAV (p14-22L,29,32A) [P14-22L,28,32A] | 37* % | 71* %
SQGISEKQLDQLLSQLIQAVLQP (P4-14S-20V) | −29% | −26%
SQGISEKQLDQLLSQL (P4-116) | 0* % | 52%
QAGPQSANKTGNVDDANNQDPMQALMQLLED (P14-dc2) | 56% | 76* %
SQGISEKQLDQLLSQLI (P4-111) | 65% | 58%
SQGISEKQLDQLLSQLIAQALLQP (P4-i18A) | 50% | 81%
SQGISEKQLDQLLSQLIQALDQP (P4-14S-21D) | 48% | 49%
SQGISEKQLDQLLSQLFQALLQP (P4-14S-17F) | 57% | 94%
SQGISEKQLDQLLSQVIQALLQP (P4-14S-16V) | 85* % | 78%
QAGPQSANKTGNVDDANNQDPLQALAQLAEDLV (P14-22L,26,29A) | 70* % | 85* %
SQGISEKQLADQLLASQLIAQALLQP (P4-i10A,14A,18A) | 69% | 75%

Same assay, conditions: spray 20 ug/ml, TMV 3 days post-treatment, scored 3 days after inoculation

Substance | Effectiveness Covered (%) (decline in TMV lesions vs UTC, systemic response) | Effectiveness Uncovered (%) (decline in TMV lesions vs UTC, local response)
QDPMQALMQLLEDLVKLDK (P14d-18D) | 32% | 52%
KPNDSQSNIAKLISALI (P15-62) | −122% | 94* %
QAGPQSANKTGNVDDANNQDPLQALAQLLEDLV (P14-22L,26A) | 83* % | 72* %
QDPMQALMQDLEDLVKLLK (P14d-10D) | 84* % | 84* %
SEEEEELAQLSAQLLKSLL (P18min-11S) | −274% | −90%
GGLTLTGVDQKLMKILNALVQ (P25-9D) | 55% | 78* %
SEEEEELTGVLQKLSKILEAL (P25min-15S) | 74* % | 81* %
SEEEEELAQLLAQLL (P18-9) | 52% | 65* %
QAGPQSANKTGNVDDANNQDPAQALLQLLEDLV (P14-22A,26L) | 62% | 48%
QQPIDRQTIEQMAQLLAQLL (P18-8) | 78* % | 55%
KPNDSQSNIAKLISALIMSLSQ (P15b-21S) | 97* % | 100* %
QDPMQALMQLLEDLDKLLK (P14d-15D) | 74* % | 87* %
SEEEEELKALLKSIARLL (P19min-13S) | −70% | 35%
QDPMQASMQLLEDLVKLLK (P14d-7S) | 23% | −112%
PSPFTQMLMHSVGEILQAQN (P6a-11S) | 88* % | 71* %
QAGPQSANKTGNVDDANNQDPEQALLQLLEDLV (P14-22E,26L) | 84* % | 61* %
QAGPQSANKTGNVDDANNQDPE_ALAQLLEDLV (QAGPQSANKTGNVDDANNQDPEALAQLLEDLV; P14-22E,26A) | 88* % | 89* %
QDPMQALMQLLEDDVKLLK [P14d-14D] | 35% | 84* %

Substance | Effectiveness Covered (%) (decline in TMV lesions vs UTC, systemic response) | Effectiveness Uncovered (%) (decline in TMV lesions vs UTC, local response)
SEEEEELQKLLK_ILEALV (SEEEEELQKLLKILEALV; P25-9) | 87* % | 68%
SEEEEELTLTGVLQKLLKIL (P25-14) | −87% | 52%
SEEEEELTGVLQKLLK_ILE (SEEEEELTGVLQKLLKILE; P25-12) | 58% | 77* %
SEEEEELEQLLEDLV (P14-39) | 66* % | 72* %
SEEEELDQLLSQLI (P4-115) | 87* % | 87* %
KPNDSQSNIAKSISALIMSLLQ (P15b-12S) | 47% | 76* %
SEEEELDQLLTQLI (P1-31) | 88* % | 95* %
SEEEEEEEIAKLISALIESLL (P15-60) | 13% | 55%
QDPMQADMQLLEDLVKLLK (P14d-7D) | 55* % | 71* %
QDPMQALMQLLEDLVKDLK (P14d-17D) | 65* % | 68* %
SEEEEELQQLLKLFSEILQ (P3-10) | 95* % | 94* %
SEEEEEEIAKLISALI (P15-63) | 74* % | 90* %
QDPMQALMQLDEDLVKLLK (P14d-11D) | 87* % | 81* %
SEEEEEDAQLLAQLLKSLL (P18min-7D) | 29% | 26%
SEEEEELKALSKLIARLL (P19min-11S) | 45% | 71* %
QDPAQALEQLLEDLVKSLK (p14f-17S) | 84* % | 94* %
SEEEEELLQLLEDLV (P14-41) | 61* % | 86* %
SEEEEELKASLKLIARLL (P19min-10S) | 94* % | 81* %
